Results as given in patent US11446354B2, “Method of treatment” (Hexima Limited, priority 2014, dated 2022).

Experiments:
C. albicans = experiment: Antifungal growth inhibition assay, C. albicans; assay type: cell-based, Candida albicans; settings: summary of Table 3
Experimental: (§1) The inhibitory effects of the plant defensins on the growth of Trichophyton rubrum, T. interdigitale, Microsporum fulvum and C. albicans (obtained from the National Mycology Reference Centre, South Australia Pathology at the Women's and Children's Hospital, Adelaide, Australia) are measured essentially as described by Broekaert et al. (1990) FEMS Microbiol Lett 69:55-59. Spores of T. rubrum, T. interdigitale and M. fulvum are isolated from sporulating fungus growing on 1⁄2 strength Sabouraud dextrose agar (SDA). Spores were removed from the plates by the addition of 1⁄2 strength potato dextrose broth (PDB). C. albicans cells are grown in Yeast Peptone Broth (YPD) for 16 h. Spore and cell concentrations are measured using a hemocytometer. Antifungal assays are conducted in 96 well microtitre plates essentially as herein described. […] Fungal growth is assayed by measuring optical density at 595 nm ([…]) using a microtitre plate reader (SpectraMax Pro M2; Molecular Devices. Growth is allowed to proceed until the optical density (OD) of the fungus in the absence of any test defensin reached an OD of 0.2. Each test is performed in duplicate.

Microsporum fulvum = experiment: Antifungal growth inhibition assay, Microsporum fulvum; assay type: cell-based; settings: summary of Table 3
Experimental: as §1

[1] = tested on: Human monocytic lymphoma (U937) cells; assay type: cell-based
Experimental: Human monocytic lymphoma (U937) cells are cultured in RPMI-1640 medium. All culture media are supplemented with 5-10% v/v fetal calf serum, 100 U/ml of penicillin, and 100 μg/ml of streptomycin. Cell lines are cultured at 37° C. in a humidified atmosphere containing 5% v/v CO2. Adherent cell lines are detached from the flask by adding a mixture containing 0.25% v/v trypsin and […]. A flow cytometry-based propidium iodide (PI) uptake assay is performed to analyze the ability of plant defensins to permeabilize U937 cells (essentially as described in Poon et al, 2014). Briefly, cells are suspended to 1×10^6 cells/ml in 0.1% v/v BSA/RPMI-1640 and incubated with plant defensins (10 μM) at 37° C. for 30 min. Samples are added to PBS containing a final concentration of 1 μg/ml PI and placed on ice. Samples are then analyzed immediately using the BD FACSCanto II Flow Cytometer and BD FACSDiva software v6.1.1. The resultant flow cytometry data is analyzed using FlowJo software v8.8.6. Cells are gated appropriately based on forward scatter and side scatter and cell permeabilization is defined by PI-positive staining.

Escherichia coli = experiment: Inhibition of the growth of Escherichia coli; assay type: cell-based; settings: 0.1625-10 μM, 18 hours, 37° C.
Experimental: A single E. coli colony was used to inoculate 5 ml of Luria-Bertani media and grown overnight at 37° C. The following day, the optical density of the culture was measured and the E. coli diluted to an optical density at 600 nm (OD600) of 0.01 in Mueller-Hinton Broth. Diluted E. coli were added to 96-well plates with defensins at concentrations of 10 μM, 5 μM, 2.5 μM, 1.25 μM, 0.625 μM, 0.3125 μM or 0.1625 μM. Plates were read at OD595 to obtain time zero data points. Plates were incubated at 37° C. for 18 hours before reading again at OD595 to assess the amount of E. coli growth.

[2] = tested on: Trichophyton rubrum, T. interdigitale, Microsporum fulvum and C. albicans; experiment: Inhibition assays summarised across the range of fungal pathogens; assay type: cell-based; settings: summary of Table 3
Experimental: The inhibitory effects of the plant defensins on the growth of Trichophyton rubrum, T. interdigitale, Microsporum fulvum and C. albicans (obtained from the National Mycology Reference Centre, South Australia Pathology at the Women's and Children's Hospital, Adelaide, Australia) are measured essentially as described by Broekaert et al. (1990) FEMS Microbiol Lett 69:55-59. Spores of T. rubrum, T. interdigitale and M. fulvum are isolated from sporulating fungus growing on 1⁄2 strength Sabouraud dextrose agar (SDA). Spores were removed from the plates by the addition of 1⁄2 strength potato dextrose broth (PDB). C. albicans cells are grown in Yeast Peptone Broth (YPD) for 16 h. Spore and cell concentrations are measured using a hemocytometer. Antifungal assays are conducted in 96 well microtitre plates essentially as herein described. Wells are loaded with 20 μL of filter sterilized (0.22 μm syringe filter, Millipore) defensin (10× stock for each final concentration) or water and 80 μL of 5×10^4 spores/mL (T. rubrum, T, interdigitale, M. fulvum) or 5,000 cells/mL (C. albicans) in 1⁄2 strength PDB. The plates are incubated at 30° C. Fungal growth is assayed by measuring optical density at 595 nm ([…]) using a microtitre plate reader (SpectraMax Pro M2; Molecular Devices. Growth is allowed to proceed until the optical density (OD) of the fungus in the absence of any test defensin reached an OD of 0.2. Each test is performed in duplicate.

[3] = assay type: in vitro ADME, Human
Experimental: Penetration of NaD1 through human nails was measured according to the method of Hui et al. (2002) J Pharm Sci 91(1):189-195. Human toenails were obtained from ScienceCare (USA) and washed with phosphate buffered saline (details, PBS) before being placed on a kimwipe that had been soaked in PBS for 3 h to rehydrate the nail. The nail was then placed in a plastic nail adapter with a dosing area of 0.5×0.5 cm (Permagear, USA) and a cotton bud wetted with 75 microlitres of PBS was placed in the receptor chamber in contact with the underside of the nail.
The cotton bud in contact with the underside of the nail was removed after 24 h and every 24 h following. Protein that had passed through the nail was recovered from the cotton bud by washing twice with 500 μL of 0.1% v/v trifluoroacetic acid. Recovered protein was quantified using RP-HPLC.

Trichophyton rubrum = experiment: Inhibition of growth of Trichophyton rubrum over 28 days, daily dosing; assay type: cell-based
Experimental: The inhibitory effect of HXL008 on the growth of Trichophyton rubrum (obtained from the National Mycology Reference Centre, South Australia Pathology at the Women's and Children's Hospital, Adelaide, Australia) was monitored over 28 days.
Spores of T. rubrum, are isolated from sporulating fungus growing on ½ strength Sabouraud dextrose agar. Spores are removed from the plates by the addition of ½ strength potato dextrose broth (PDB). Spore and cell concentrations are measured using a hemocytometer.
Spores were diluted to a concentration of 5×10^4 spores/mL in ½ PBD (2 mL) containing 0, 10 or 50 μg/mL HXL008. Cultures are incubated at 30 C without shaking. After 24 h, 100 μL of each culture is extracted and plated onto ½ SDA plates. An additional 100 uL of ½ PDB is then added containing either 0, 20 or 100 μg of HXL008. SDA plates are then incubated at 30 C for 5 days. This process is repeated every 24 h for 28 days. After 15 days, the culture containing no HXL008 becomes too thick to pipette and is no longer used in the assay.

[4] = tested on: clinical isolates of T. rubrum; experiment: Cell survival assay, clinical isolates of T. rubrum plated after 72 h with HXL008; assay type: cell-based, Trichophyton rubrum; settings: 72 h with HXL008 (100 g/mL, 100 μM elsewhere in the source), 5 days at 30° C.
Experimental: FIGS. 3(a) through (e) are photographic representations of surviving colonies of T. rubrum grown on agar plates after treatment with 100 μM HXL008 for 72 h. Panels (a) to (d) represent clinical isolates 14-01, 14-02, 14-03 and 13-04, respectively. Surviving colonies are marked with a black rectangle. Panel (e) represents the growth of T. rubrum that has not been treated with HXL008.
After incubation for 72 h, the media from wells containing clinical isolates of T. rubrum incubated with 100 […] HXL008 was plated onto fresh Sabouraud dextrose agar. Plates were incubated at 30° C. for 5 days to allow colonies to develop before being photographed.

Row | Substance | Inhibition of C. albicans, result in words (C. albicans) | Inhibition of M. fulvum, result in words (Microsporum fulvum) | U937 cells permeabilized (PI-positive) [1] | Growth of E. coli in the presence of defensin (Escherichia coli) | Antifungal activity across the range of fungal pathogens, result in words [2] | Nail penetration, result in words [3] | Visible growth of T. rubrum in culture (Trichophyton rubrum; 10 μg/mL or 50 μg/mL, over the duration of the assay (28 days)) | T. rubrum cells killed (Trichophyton rubrum; HXL008 50 μg/mL, within 24 h) | Surviving colonies per plate (Trichophyton rubrum; after 20 days of treatment, 100 μL plated) | Surviving colonies on agar plates after incubation with HXL008 [4]
1 | HXL002: Class I plant defensin from Triticum aestivum, SEQ ID NO: 5 (RDCLSQSHKFKGACLSSSNCAAVCRTENFPDGECHTHNFARKCFCKRAC; HXL002 Triticum aestivum) | very poor inhibitors | very poor inhibitors | less than 2% |  |  |  |  |  |  | 
2 | HXL004: Class I plant defensin from Nicotiana benthamiana, SEQ ID NO: 7 (RTCESQSHRFKGLCFSRSNCASVCHTEGFNGGHCRGFRRRCFCTRHC; HXL004 Nicotiana benthamiana) |  |  | 13% | inhibited the growth of E. coli in a concentration dependent manner | intermediate activity across the range of pathogens | able to penetrate nails faster and more effectively than the active ingredients of current topical onychomycosis therapies |  |  |  | 
3 | HXL008: Class I plant defensin from Picramnia pentandra, SEQ ID NO: 1 (KVCTKPSKFFKGLCGTDGACTTACRKEGLHSGYCQLKGFLNSVCVCRKHC; HXL008 Picramnia pentandra) |  |  | less than 2% | did not inhibit growth of E. coli at the concentrations tested | most effective plant defensins across the range of fungal pathogens | able to penetrate nails faster and more effectively than the active ingredients of current topical onychomycosis therapies | did not display any visible growth | more than 80% | 0 or only 1 | 1-3 colonies
4 | LL37: human antimicrobial peptide LL37 used as a control (LLGDFFRKSKEKIGKEFKRIVQRIKDFLRNLVPRTES; Antibacterial peptide LL-37; UniProt P49913 134-170, looked up) [reference compound] |  |  |  | inhibited the growth of E. coli in a concentration dependent manner |  |  |  |  |  | 
5 | NaD1: Solanaceous Class II plant defensin from Nicotiana alata, SEQ ID NO: 18 (RECKTESNTFPGICITKPPCRKACISEKFTDGHCSKILRRCLCTKPC; NaD1 Nicotiana alata) [reference compound] |  |  | 33% | did not inhibit growth of E. coli at the concentrations tested |  | able to penetrate nails faster and more effectively than the active ingredients of current topical onychomycosis therapies |  |  |  | 
